≈ marks a conversion by molar mass, not a printed value. Where “and” joins values, the source holds several entries; their conditions need not be identical. Identical values can stand only once.
Key:
Mus musculus [1] = assay: In vivo antitumor activity of 39 ug/kg.day subcutaneously administered compound against Ip implanted L1210 tumor in mouse; type: functional
Nucleic Acid [2] = assay: Relative intensity of DNA alkylation at the high affinity alkylation site [5'-d(AATB)-3'] within w794 DNA at 4 degrees C, 24 h; type: functional
Mus musculus [3] = assay: Survivors at day 18 at 39 ug/kg.day; value is given as 4/6 and no evidence of residual tumor found.; type: functional, organism-based
Nucleic Acid [4] = assay: Relative fist order rate constant for alkylation at the high affinity site of DNA; type: functional
L1210 [5] = assay: Inhibitory concentration required for 50% in vitro cytotoxic activity was determined against L1210 mouse lymphocytic leukemia at 10 pM; type: functional, cell-based
Mus musculus [6] = assay: In vivo antitumor activity of 10 ug/kg.day subcutaneously administered compound against Ip implanted L1210 tumor in mouse; type: functional
[7] = Relative stability based on solvolysis studies; type: physicochemical
Mus musculus [8] = assay: In vivo antitumor activity of 29 ug/kg.day subcutaneously administered compound against Ip implanted L1210 tumor in mouse; type: functional
Mus musculus [9] = assay: In vivo antitumor activity of 19 ug/kg.day subcutaneously administered compound against Ip implanted L1210 tumor in mouse; type: functional
[10] = Half-life was determined; type: ADME; details: human
Mus musculus [11] = assay: In vivo antitumor activity of 5 ug/kg.day subcutaneously administered compound against Ip implanted L1210 tumor in mouse; type: functional
Nucleic Acid [12] = assay: Percent alkylation at the high affinity alkylation site [5'-d(AATB)-3'] within w794 DNA at 4 degrees C, 24 h; type: functional
Mus musculus [13] = assay: Survivors at day 18 at 29 ug/kg.day; value is given as 1/6 and no evidence of residual tumor found.; type: functional, organism-based
L1210 [14] = assay: Relative IC50 for in vitro cytotoxic activity against L1210 mouse lymphocytic leukemia; type: functional
Mus musculus [15] = species: Mus musculus; assay: Relative cytotoxic activity against mouse L1210 leukemia; type: functional
Nucleic Acid [16] = assay: Percent alkylation at the high affinity alkylation site [5'-d(AATB)-3'] within w794 DNA at 4 degrees C, 24 h; range is 5-10 %; type: functional
L1210 [17] = assay: Inhibitory concentration required for 50% in vitro cytotoxic activity was determined against L1210 mouse lymphocytic leukemia at 40 pM; type: functional, cell-based
Mus musculus [18] = assay: In vivo antitumor activity of 75 ug/kg.day subcutaneously administered compound against P388 leukemia in mouse; type: functional

Row | Compound | T/C (Mus musculus [1]) | Relative intensity (Nucleic Acid [2]) | Survivors (Mus musculus [3]) | rel k (Nucleic Acid [4]) | IC50 (L1210 [5]) | T/C (Mus musculus [6]) | Relative stability [7] | T/C (Mus musculus [8]) | T/C (Mus musculus [9]) | half-life [10] | T/C (Mus musculus [11]) | DNA alkylation (Nucleic Acid [12]) | Survivors (Mus musculus [13]) | Cytotoxic activity (L1210 [14]) | Relative cytotoxic activity (Mus musculus [15]) | DNA alkylation (Nucleic Acid [16]) | IC50 (L1210 [17]) | T/C (Mus musculus [18])
1 | O=C(Nc1ccc2[nH]c(C(=O)N3C[C@H]4C[C@@]45C3=CC(=O)c3ccccc35)cc2c1)c1cc2ccccc2[nH]1 | >200 | 1 | No evidence of residual tumor found | 1 | 0.005 ng/mL (≈ 0.01 nM) | 156 | 1 | >175 | 162 | 133 h | 120 | 93% | No evidence of residual tumor found | 1 | 1 | – | – | –
2 | Cc1c[nH]c2c1C13CC1CN(C(=O)c1cc4cc(NC(=O)c5cc6ccccc6[nH]5)ccc4[nH]1)C3=CC2=O (single isomer, unassigned; (+)) | 129 | 0.1 | – | 0.07 | – | 114 and 133 | 0.27 | 118 | 113 | 36.7 h | – | – | – | 0.25 | 0.25 | 10% | 0.02 ng/mL (≈ 0.0399 nM) | 259

Source: ChEMBL document CHEMBL1125807, “Synthesis and preliminary evaluation of (+)-CBI-indole2: an enhanced functional analog of (+)-CC-1065” (Bioorg Med Chem Lett, 1991)
